Read-outs that look alike come from different tables or passages of the source.
Key:
recombinant human GALK1 = recombinant human GALK1 (Homo sapiens, UniProt P51570); assay: hGALK1 biochemical activity assay (Kinase-Glo Plus, ATP depletion)
Summary of the method: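 Recombinant human or mouse GALK1 (5 nM, with 100 μM galactose, in the added enzyme solution) was run with ATP (35 μM in the substrate solution) in HEPES pH 8.0 buffer. Compounds were tested at 11 1/3-step concentrations from 57.4 μM to 0.97 nM. After 1 h at room temperature, remaining ATP was read by Kinase-Glo Plus luminescence.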

recombinant mouse GALK1 = recombinant mouse GALK1 (Mus musculus, UniProt Q9R0N0); assay: mGALK1 biochemical activity assay (Kinase-Glo Plus, ATP depletion)
Summary of the method: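 Recombinant GALK1 (5 nM) with 100 μM galactose; GALK1 turnover read as ATP depletion by Kinase-Glo Plus luminescence. Reaction ran 1 h at room temperature before detection reagent was added.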

[1] = aqueous kinetic solubility
[2] = rat microsomal stability (RLM); conditions: microsomal half-life
[3] = Tables 2-15, 35 μM ATP, 100 μM galactose, 1 h, bracketed figure after some values (e.g. −1.2) is undefined and not reported, read-out: hGALK IC50
[4] = recombinant human GALK1, Kinase-Glo Plus ATP depletion, read-out: hGALK
[5] = Tables 2-15, 35 μM ATP, 100 μM galactose, 1 h, bracketed figure after some values is undefined and not reported, read-out: mGALK IC50
[6] = recombinant mouse GALK1, Kinase-Glo Plus ATP depletion, read-out: mGALK

recombinant human GALK1, sequence (P51570 whole entry): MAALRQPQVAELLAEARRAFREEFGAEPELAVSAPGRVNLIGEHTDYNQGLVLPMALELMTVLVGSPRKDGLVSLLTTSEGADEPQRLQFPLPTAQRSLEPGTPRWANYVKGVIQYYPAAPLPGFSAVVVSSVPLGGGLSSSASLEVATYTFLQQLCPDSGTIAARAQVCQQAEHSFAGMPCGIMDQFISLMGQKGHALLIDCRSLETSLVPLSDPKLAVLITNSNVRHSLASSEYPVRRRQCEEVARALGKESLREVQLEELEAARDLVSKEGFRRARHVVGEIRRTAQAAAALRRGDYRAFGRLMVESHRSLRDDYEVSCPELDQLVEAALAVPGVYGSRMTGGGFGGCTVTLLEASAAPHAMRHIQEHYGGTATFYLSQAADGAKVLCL
recombinant mouse GALK1, sequence (Q9R0N0 whole entry): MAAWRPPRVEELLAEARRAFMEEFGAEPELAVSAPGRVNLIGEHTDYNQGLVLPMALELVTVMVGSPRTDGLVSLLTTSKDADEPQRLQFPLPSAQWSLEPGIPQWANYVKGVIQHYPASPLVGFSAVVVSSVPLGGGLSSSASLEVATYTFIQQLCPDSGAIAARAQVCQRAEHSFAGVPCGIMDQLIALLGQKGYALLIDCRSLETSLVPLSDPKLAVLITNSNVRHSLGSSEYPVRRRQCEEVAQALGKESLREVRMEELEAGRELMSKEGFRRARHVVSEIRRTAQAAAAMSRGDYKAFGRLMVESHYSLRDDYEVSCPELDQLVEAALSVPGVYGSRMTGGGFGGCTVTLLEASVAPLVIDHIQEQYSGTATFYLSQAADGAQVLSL

Row | SMILES | IC50 (recombinant human GALK1; [3]) [µM] | IC50 (recombinant human GALK1; [4]) [µM] | IC50 (recombinant mouse GALK1; [5]) [µM] | IC50 (recombinant mouse GALK1; [6]) [µM] | Perm. (1 × 10^−6 cm/sec) (PAMPA permeability) | Sol. [1] [µg/mL] | Metab. Stabil. (m) [2] [m]
1 | CC1=C(C(=O)Nc2cc(C(=O)O)ccn2)C(c2cccc(N)c2Cl)N=C(Nc2nc3ccc(F)cc3o2)N1 (centres unmarked) [Compound 64, 2-(4-(3-amino-2-chlorophenyl)-2-((6-fluorobenzo[d]oxazol-2-yl)amino)-6-methyl-1,4-dihydropyrimidine-5-carboxamido)isonicotinic acid] | 3.06 | 3.06 | 17.2 | 17.2 | <1 1 × 10^−6 cm/sec | >79 | >30
2 | CC1=C(C(=O)Nc2cc(C(=O)O)ccn2)C(c2ccc(C#N)cc2Cl)N=C(Nc2nc3ccc(F)cc3o2)N1 (centres unmarked) [Compound 66, 2-(4-(2-chloro-4-cyanophenyl)-2-((6-fluorobenzo[d]oxazol-2-yl)amino)-6-methyl-1,4-dihydropyrimidine-5-carboxamido)isonicotinic acid] | 0.61 | 0.61 | 3.85 | 3.85 | <1 1 × 10^−6 cm/sec | >81 | >30
3 | CCOc1ccc(C2N=C(Nc3nc4ccc(F)cc4o3)NC(C)=C2C(=O)Nc2cc(C(=O)O)ccn2)c(Cl)c1 (centres unmarked) [Compound 67, 2-(4-(2-chloro-4-ethoxyphenyl)-2-((6-fluorobenzo[d]oxazol-2-yl)amino)-6-methyl-1,4-dihydropyrimidine-5-carboxamido)isonicotinic acid] | 0.69 | 0.69 | 3.85 | 3.85 | <1 1 × 10^−6 cm/sec | 11.3 | >30
4 | CC1=C(C(=O)Nc2cc(C(=O)O)ccn2)C(c2ccc(-c3ccc(C(F)(F)F)cc3)cc2Cl)N=C(Nc2nc3ccc(F)cc3o2)N1 (centres unmarked) [Compound 68, 2-(4-(3-chloro-4′-(trifluoromethyl)-[1,1′-biphenyl]-4-yl)-2-((6-fluorobenzo[d]oxazol-2-yl)amino)-6-methyl-1,4-dihydropyrimidine-5-carboxamido)isonicotinic acid] | 7.69 | 7.69 | 21.7 | 21.7 | 6.6 1 × 10^−6 cm/sec | 8.1 | >30
5 | CC1=C(C(=O)Nc2cc(C(=O)O)ccn2)C(c2ccc(-c3ccc(C)nc3)cc2Cl)N=C(Nc2nc3ccc(F)cc3o2)N1 (centres unmarked) [Compound 69, 2-(4-(2-chloro-4-(6-methylpyridin-3-yl)phenyl)-2-((6-fluorobenzo[d]oxazol-2-yl)amino)-6-methyl-1,4-dihydropyrimidine-5-carboxamido)isonicotinic acid] | – | 0.34 | 1.22 | 1.22 | <1 1 × 10^−6 cm/sec | >90 | >30
6 | CC1=C(C(=O)Nc2cc(C(=O)O)ccn2)C(c2ccc(-c3ccc(C(F)(F)F)nc3)cc2Cl)N=C(Nc2nc3ccc(F)cc3o2)N1 (centres unmarked) [Compound 70, 2-(4-(2-chloro-4-(6-(trifluoromethyl)pyridin-3-yl)phenyl)-2-((6-fluorobenzo[d]oxazol-2-yl)amino)-6-methyl-1,4-dihydropyrimidine-5-carboxamido)isonicotinic acid] | 1.21 | 1.21 | 3.85 | 3.85 | <1 1 × 10^−6 cm/sec | 28.6 | >30
7 | CC1=C(C(=O)Nc2cc(C(=O)O)ccn2)C(c2ccc(-c3cnc(C)nc3)cc2Cl)N=C(Nc2nc3ccc(F)cc3o2)N1 (centres unmarked) [Compound 71, 2-(4-(2-chloro-4-(2-methylpyrimidin-5-yl)phenyl)-2-((6-fluorobenzo[d]oxazol-2-yl)amino)-6-methyl-1,4-dihydropyrimidine-5-carboxamido)isonicotinic acid] | – | 0.11 | 0.69 | 0.69 | <1 1 × 10^−6 cm/sec | >90 | >30
8 | CC1=C(C(=O)Nc2cc(C(=O)O)ccn2)C(c2cc(C(=O)O)ccc2Cl)N=C(Nc2nc3ccc(F)cc3o2)N1 (centres unmarked) [Compound 73, 2-(4-(5-carboxy-2-chlorophenyl)-2-((6-fluorobenzo[d]oxazol-2-yl)amino)-6-methyl-1,4-dihydropyrimidine-5-carboxamido)isonicotinic acid] | 1.72 | 1.72 | 12.2 | 12.2 | 2.85 1 × 10^−6 cm/sec | >83 | >30
9 | CC1=C(C(=O)Nc2cc(C(=O)O)ccn2)C(c2ccc(-n3ccnc3)cc2Cl)N=C(Nc2nc3ccc(F)cc3o2)N1 (centres unmarked) [Compound 74, 2-(4-(2-chloro-4-(1H-imidazol-1-yl)phenyl)-2-((6-fluorobenzo[d]oxazol-2-yl)amino)-6-methyl-1,4-dihydropyrimidine-5-carboxaido)isonicotinic acid] | – | 0.12 | – | 0.97 | <1 1 × 10^−6 cm/sec | >87 | >30
10 | CC1=C(C(=O)Nc2ccccn2)C(c2ccccc2Cl)N=C(Nc2nc3cccc(N)c3o2)N1 (centres unmarked) [Compound 81, 2-((7-aminobenzo[d]oxazol-2-yl)amino)-4-(2-chlorophenyl)-6-methyl-N-(pyridin-2-yl)-1,4-dihydropyrimidine-5-carboxamide] | – | 3.43 | – | 19.3 | 271.13 1 × 10^−6 cm/sec | <1 | >30
11 | CC1=C(C(=O)NCc2cnn(C)c2)C(c2ccccc2Cl)N=C(Nc2nc3cccc(N)c3o2)N1 (centres unmarked) [Compound 82, 2-((7-aminobenzo[d]oxazol-2-yl)amino)-4-(2-chlorophenyl)-6-methyl-N-((1-methyl-1H-pyrazol-4-yl)methyl)-1,4-dihydropyrimidine-5-carboxamide] | – | 0.39 | – | 3.43 | 101.9 1 × 10^−6 cm/sec | >72 | >30
12 | CC1=C(C(=O)Nc2cc(C(=O)O)ccn2)[C@@H](c2ccc(C)cc2Cl)N=C(Nc2nc3cccc(N)c3o2)N1 [Compound 84, (S)-2-(2-((7-aminobenzo[d]oxazol-2-yl)amino)-4-(2-chloro-4-methylphenyl)-6-methyl-1,4-dihydropyrimidine-5-carboxamido)isonicotinic acid] | 3.43 | 3.43 | 21.7 | 21.7 | <1 1 × 10^−6 cm/sec | >78 | >30
13 | CC1=C(C(=O)Nc2cc(C(=O)O)ccn2)[C@H](c2ccc(C)cc2Cl)N=C(Nc2nc3cccc(N)c3o2)N1 [Compound 85, (R)-2-(2-((7-aminobenzo[d]oxazol-2-yl)amino)-4-(2-chloro-4-methylphenyl)-6-methyl-1,4-dihydropyrimidine-5-carboxamido)isonicotinic acid] | 0.09 | 0.09 | 1.41 | 1.41 | <1 1 × 10^−6 cm/sec | >53 | >30
